Measured values published in US20050221359A1, “Cospeptin, cosmedin and their uses” (The Board of Trustees of the Leland Stanford Junior …, priority 2004, published 2005).
“Also recorded” adds a separate entry of the source.

How the values were obtained:
[1] = tested on: normal Sprague-Dawley rats; assay: Effects of cospeptin on blood pressure and heart rate (tail-cuff method); format: in vivo, rat; settings: intraperitoneal administration, conscious normal rats
Experimental: Effects of cospeptin on blood pressure and heart rate in normal […] rats. Blood pressure measurements in conscious male Sprague-Dawley rats (7-9 weeks of age) were made in animals preadapted to the measurement procedure. Indirect systolic pressure was determined by a programmable NIBP system using the tail-cuff method (Columbus Instruments, Columbus, Ohio). Following attachment of the pressure transducer, rats were left undisturbed for 10 min before baseline measurements that spanned a 15-min interval. Following baseline measurements, rats were injected intraperitoneally with varying doses of hormones. Blood pressure and heart rate were monitored for 50 min at 25-sec intervals. Changes in blood pressure were calculated as the average of thirty measurements performed within each 5-min interval.

[2] = molecular target: cospeptin E receptor in pituitary tissues; assay: Saturation binding of 125I-Tyr0-cospeptin E to pituitary homogenate; settings: saturation curve, rat pituitary gland
Experimental: (§1) Radiolabeling of cospeptin. Peptide iodination was performed according to the IODO-GEN procedure (Pierce, Upland, Ind.). The mixture of Tyr0-cospeptin E (20 μg) and 1 mCi [^125I] Nal was transferred to precoated IODO-GEN vials before incubation at room temperature for 4 min. The ^125I-labeled peptide was applied to a Sep-Pak C18 cartridge (Waters, Milford, Mass.) for purification and was eluted with 60% acetonitrile/0.1%TFA. The purified tracer was stored at −20° C.
Receptor binding experiments. Homogenates were prepared from different tissues of adult rats. Binding assays were performed in glass tubes. Routinely, tissue homogenates were incubated in 100 μl of binding buffer (PBS with 0.1% bovine serum albumin) for 16 h at room temperature with varying concentrations of ^125I-Tyr0-cospeptin E (100, 000 cpm˜2 nM) in the presence or absence of unlabelled Tyr0-cospeptin E (in 5,000 fold excess). After incubation, the tubes were centrifuged for 10 min at 10,000×g, and the pellet was washed twice in ice-cold PBS. Finally, Tyr0-cospeptin E bound to the tissues was counted using a gamma-spectrophotometer. Specifically bound counts were calculated by subtracting unspecific counts determined in the presence of 5,000-fold excess of nonlabeled peptide from total counts bound to the tissues. […]

[3] = tested on: cospeptin receptors in the pituitary; assay: Displacement of 125I-Tyr0-cospeptin E binding in pituitary (competition studies); design: species or system rat; settings: competition with 125I-Tyr0-cospeptin E
Experimental: as §1
Receptor binding experiments. Homogenates were prepared from different tissues of adult rats. Binding assays were performed in glass tubes. Routinely, tissue homogenates were incubated in 100 μl of binding buffer (PBS with 0.1% bovine serum albumin) for 16 h at room temperature with varying concentrations of ^125I-Tyr0-cospeptin E (100, 000 cpm˜2 nM) in the presence or absence of unlabelled Tyr0-cospeptin E (in 5,000 fold excess). After incubation, the tubes were centrifuged for 10 min at 10,000×g, and the pellet was washed twice in ice-cold PBS. Finally, Tyr0-cospeptin E bound to the tissues was counted using a gamma-spectrophotometer. Specifically bound counts were calculated by subtracting unspecific counts determined in the presence of 5,000-fold excess of nonlabeled peptide from total counts bound to the tissues. For displacement ^125I-Tyr0-cospeptin E binding, increasing concentrations of Tyr0-cospeptin E or other peptides or analogues (cospeptin E, cospeptin A, cospeptin B, cospeptin D, cospeptin F or cosmedin B) were added.

C57/BL6 male mice = assay: Effects of peptides on gastric emptying activity; format: in vivo, mouse; settings: intraperitoneal injection, fed mice, stomach weighed after treatment
Experimental: Effects of peptides on gastric emptying activity Eight-week-old C57/BL6 male mice deprived of food for 20 h were given food pellets for 90 min before intraperitoneal injection with different hormones or saline. After treatment, mice were deprived of food again and killed 90 min later. The stomach was excised at the pylorus and cardia before weighing. Gastric emptying was calculated by comparing the stomach weight of treated mice to the stomach weight of control mice killed at the time of hormone injection. The rates of gastric emptying were calculated by the formula (wet weight of stomach in fed animals killed at 0 h minus wet weight at […] after treatment/wet weight of stomach in fed animals killed at 0 h)×100.

rat ileal tissue strips = assay: Ileum contraction assay (organ bath, ileal muscle strips); settings: for muscle contraction of ileal strips: cumulative concentrations 10 nM to 10 μM; for magnitude of contraction relative to maximum response to muscarinic agonist 5-methylfurmethide: normalised to 5-methylfurmethide maximum
Experimental: Ileum contraction assay. Female rats (˜350 g) were euthanized with CO2 and the abdominal cavity was opened to expose the intestines. A 3-cm length of ileum was removed, cleared of any adhering tissue and longitudinal strips of ileal muscle (2×5 mm) were cut. On average, six preparations were obtained from each animal. The tissues were suspended in 20-ml organ baths containing Krebs-Henseleit solution maintained at 32° C. containing 2.5 mM Ca^2+ and gassed continuously with 95% O2/5% CO2. The tissues were placed under a loading tension of 1 g. The tissue was equilibrated for 90 min after which a dose response curve of the peptide of interest was obtained at 0.5 log unit cumulative incremental concentrations from 10 nM to 10 μM.

Substance	blood pressure [1]	heart rate [1]	order of affinity to the cospeptin receptors [3]	gastric emptying activity (C57/BL6 male mice)	further results
human cospeptin Form E, SEQ ID NO: 10, AGIVQEDVQPPGLKVWSDPFG [cospeptin E]	suppressed blood pressure	decreased heart rate	cospeptin E=Tyr0-cospeptin E>cospeptin A,B>>cospeptin F>>cosmedin		Kd [2]: 5 nM
cospeptin A: human cospeptin Form A, SEQ ID NO: 6, FYPIYFRPLMRLEEYKKEQAINRAGIVQEDVQPPGLKVWSDPFG (KRNWTPQAMLYLKGAQGHRFISDQSRRK)	minimal effects	decreased heart rate	cospeptin E=Tyr0-cospeptin E>cospeptin A,B>>cospeptin F>>cosmedin		
human cosmedin Form B, SEQ ID NO: 4, NWTPQAMLYLKGAQG; presumed amidated at carboxyl terminus [cosmedin B]			cospeptin E=Tyr0-cospeptin E>cospeptin A,B>>cospeptin F>>cosmedin	effectively inhibits gastric emptying	gastric emptying activity (C57/BL6 male mice; listed as cosmedin-B): suppressed gastric emptying activity in a dose-dependent manner; muscle contraction of ileal strips (rat ileal tissue strips): concentration dependent muscle contraction; muscle contraction of ileal strips (rat ileal tissue strips; listed as cosmedin-B): produced a concentration-dependent muscle contraction; also recorded: direct action of cosmedin-B on muscle contraction; magnitude of contraction relative to maximum response to muscarinic agonist 5-methylfurmethide (rat ileal tissue strips): comparable to that of the acetylcholine muscarinic receptor agonist 5-methylfurmethide; magnitude of contraction relative to maximum response to muscarinic agonist 5-methylfurmethide (rat ileal tissue strips; listed as cosmedin-B): comparable to that mediated by the muscarinic receptor stimulation; potency pA50 (rat ileal tissue strips; rat ileal tissue strips): 6.05±0.17
cospeptin F: human cospeptin Form F, SEQ ID NO: 11, VWSDPFG (FYPIYFRPLLRLEEYQKEQAVNRAGIVQEDVQPPGLKVWSDPFGRK; rat)			cospeptin E=Tyr0-cospeptin E>cospeptin A,B>>cospeptin F>>cosmedin		
cospeptin B: human cospeptin Form B, SEQ ID NO: 7, PLMRLEEYKKEQAINRAGIVQEDVQPPGLKVWSDPFG (KRNWTPQAMLYLKGAQGRRFLSDQSRRK)	suppressed blood pressure		cospeptin E=Tyr0-cospeptin E>cospeptin A,B>>cospeptin F>>cosmedin	exhibited gastric emptying activities; also recorded: effectively inhibits gastric emptying	
